# pIC50: −log10 of the molar value. Where two headings read alike, the source gives them in different places.
# What was measured:
# optic nerve axons [1] = experiment: Optic nerve pathology: axonal damage caused by the NO donor PAPA/NO; assay type: cell-based, rat
# Description: Optic nerves were excised from adult Wistar rats (weighing 240-280 g) after decapitation. They comprised lengths of nerve (each about 9 mm long) running from immediately behind the eyeball to just in front of the optic chiasm. […] The flasks were held in a shaking water bath at 37° C.
# (§1) After 1-2 h preincubation in aCSF, test nerves received the NO donor, PAPA/NO (1 mM) for 2 h or OGD was imposed by transferring the nerves for 1 h into aCSF lacking glucose and gassed with 5% CO2 in N2. Afterwards, the nerves were allowed a 90 min recovery period in aCSF. Putative protectant drugs were present from 15 min before until 15 min after the NO exposure or OGD.
# After dehydration the tissues were embedded in Durcupan resin. Semithin (1 μm) sections were stained with either toluidine blue.
# The data are expressed as mean number of axons greater than 2.5 μm in diameter per […] (±S.E.M.) in fields from 5-39 nerves.
# optic nerve axons [2] = experiment: Optic nerve pathology: axonal damage caused by oxygen- and glucose-deprivation (OGD); assay type: cell-based, rat; settings: for Index of Axonopathy: mean ± S.E.M.; for Protection against axonal damage caused by OGD (in words): OGD-exposed rat optic nerve
# Description: Optic nerves were excised from adult Wistar rats (weighing 240-280 g) after decapitation. They comprised lengths of nerve (each about 9 mm long) running from immediately behind the eyeball to just in front of the optic chiasm. The nerves were incubated in Erlenmeyer flasks (50 ml capacity) containing 20 ml of an artificial CSF (aCSF) solution composed of (mM): NaCl (120) KCl (2.0), CaCl2 (2.0), NaHCO3 (26), KH2PO4 (1.18), MgSO4 (1.19) and glucose (11), continuously gassed with 95% O2/5% CO2. The flasks were held in a shaking water bath at 37° C.
# as §1
# The nerves were then fixed for 2 h in a mixture of 4% paraformaldehyde and 2.5% glutaraldehyde in 0.1 M phosphate buffer (pH 7.4), and post-fixed with 1% osmium tetroxide for 1 h. After dehydration the tissues were embedded in Durcupan resin. Semithin (1 μm) sections were stained with either toluidine blue.
# To quantify the extent of axonal pathology under the light microscope, the degree of distension of the axon profiles was measured using an image analysis system as described previously (Garthwaite et al., (1999), Neuroscience, 94, 1219-1230). The data are expressed as mean number of axons greater than 2.5 μm in diameter per […] (±S.E.M.) in fields from 5-39 nerves.
# sodium channels = experiment: [14C]-labelled guanidine flux through sodium channels; assay type: biochemical, rat; settings: inhibition of flux of [14C]-labelled guanidine through sodium channels
# optic nerve = experiment: tissue or blood; assay type: cell-based; settings: Rattus norvegicus; 30 μM of each drug; OGD 1 h; cGMP accumulation; compared with protection achieved by TTX; read-out: % protection accorded
# [3] = PAPA/NO-exposed rat optic nerve
smiles,measurement,setting,value
CCCN(CCCN)/[N+]([O-])=N/O [PAPA/NO],Index of Axonopathy,"optic nerve axons [1]; PAPA/NO (1 mM) for 2 h alone, no protectant, mean ± S.E.M.",226 ± 22 axons greater than 2.5 μm in diameter per 10^4 m^2
"CN1CCN(c2ncc(-c3cc(Cl)cc(Cl)c3Cl)c(N)n2)CC1 [BW619C89, reference compound]",Index of Axonopathy,"optic nerve axons [1]; PAPA/NO (1 mM) + drug at 100 μM, mean ± S.E.M.",26 ± 3 axons greater than 2.5 μm in diameter per 10^4 m^2
same,Effect on axonal pathology caused by NO (in words),optic nerve axons [1]; [3],eliminated
same,Index of Axonopathy,optic nerve axons [2]; OGD 1 h + drug at 100 μM,53 ± 5 axons greater than 2.5 μm in diameter per 10^4 m^2
same,Protection against axonal damage caused by OGD (in words),optic nerve axons [2],able to protect to an equivalent degree
"O=C(O)c1n[nH]c2ccccc12 [Example 48, Indazole-3-carboxylic acid]",melting point,,261 to 263 °C (dec.)
"CN(C)Cc1noc(-c2nn(Cc3ccccc3)c3ccccc23)n1 [Example 52, 1-Benzyl-3-[3-(N,N-dimethylaminomethyl)-1,2,4oxadiazol-5-yl]indazole]",pIC50,sodium channels,4.47
same,melting point,,93 to 95 °C
"Cn1c(SCC(=O)c2ccccc2)nnc1-c1cc(C(C)(C)C)nn1Cc1ccc(F)cc1 [2-{5-[5-tert-Butyl-2-(4-fluoro-benzyl)-2H-pyrazol-3-yl]-4-methyl-4H-[1,2,4]triazol-3-ylsulfanyl}-1-phenyl-ethanone]",pIC50,sodium channels,4.71
same,inhibition at 30 µM,optic nerve,18%
COC(=O)c1nn(Cc2ccccc2)c2ccccc12,melting point,,72 to 73 °C
NC1=N[C@H](O)[C@H]2[C@H]3O[C@]4(O)O[C@@H]([C@@H](O)[C@@]2(N1)[C@@H]4O)[C@]3(O)CO [Tetrodotoxin],Effect on axonal pathology caused by NO (in words),optic nerve axons [1],eliminated
same,Index of Axonopathy,optic nerve axons [1],17 ± 4 axons greater than 2.5 μm in diameter per 10^4 m^2
"OCc1ccc(-c2nn(Cc3ccccc3)c3ccccc23)o1 [Example 4, 1-Benzyl-3-(5-hydroxymethyl-2-furyl)-1H-indazole]",Index of Axonopathy,"optic nerve axons [1]; PAPA/NO (1 mM) + drug at 30 μM, mean ± S.E.M.",24 ± 4 axons greater than 2.5 μm in diameter per 10^4 m^2
same,Effect on axonal pathology caused by NO (in words),optic nerve axons [1]; [3],as effective as both these other agents
same,pIC50,sodium channels,4.77
same,Index of Axonopathy,"optic nerve axons [2]; OGD 1 h + drug, concentration not given",72 ± 15 axons greater than 2.5 μm in diameter per 10^4 m^2
same,Protection against axonal damage caused by OGD (in words),optic nerve axons [2],able to protect to an equivalent degree

# Reference: patent US7790761B2, “Blockade of voltage dependent sodium channels” (University College London, priority 2000, dated 2010)
